From US11458123B2 (Arvinas, Inc., priority 2016, dated 2022)

System: tau protein
Test: Tau protein in vitro degradation assay (Western blot, Tau-13 antibody)
Assay type: cell-based, human
Details: SK-N-SH cells; 72 hours of incubation; tested at 300 nM, 100 nM, 33 nM and 11 nM; Western blot, Tau-13 antibody
In short: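 Tau degradation read by Tau-13 Western blot (detects all human tau forms) of SDS-PAGE-resolved lysates from SK-N-SH cells. Cells were plated at least 18 h before 72 h exposure to PROTACs at either 1000/300/100 nM or 300/100/33/11 nM.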

Question: For `Cn1c2ccncc2c2ccc(-c3ccc(O[C@H]4C[C@H](OCCCOCCCOC5CN(c6ccc7c(c6)C(=O)N(C6CCC(=O)NC6=O)C7=O)C5)C4)nc3)cc21` (stereo partly shown) [Compound 104, 2-(2,6-dioxopiperidin-3-yl)-5-(3-(3-(3-((1r,3r)-3-((5-(5-methyl-5H-pyrido[4,3-b]indol-7-yl)pyridin-2-yl)oxy)cyclobutoxy)propoxy)propoxy)azetidin-1-yl)isoindoline-1,3-dione], which “Degradation activity* (highest amount of degradation observed at any dosage; tau protein remaining)” value is on record?
Answer: The value was “A (≤50% tau protein remaining after 72 hours of incubation with the test compound)”.

Question: How did the “Degradation activity* (highest amount of degradation observed at any dosage; tau protein remaining)” value turn out when `Cn1c2ccncc2c2ccc(-c3ccc(O[C@H]4C[C@H](OCCCCCN5CCN(c6ccc7c(c6)C(=O)N(C6CCC(=O)NC6=O)C7=O)CC5)C4)nc3)cc21` (stereo partly shown) [Compound 68, 2-(2,6-dioxopiperidin-3-yl)-5-(4-(5-((1r,3r)-3-((5-(5-methyl-5H-pyrido[4,3-b]indol-7-yl)pyridin-2-yl)oxy)cyclobutoxy)pentyl)piperazin-1-yl)isoindoline-1,3-dione] was run?
Answer: The value was “C (>80% tau protein remaining after 72 hours of incubation with the test compound)”.

Question: With `Cn1c2ccncc2c2ccc(-c3ccc(O[C@H]4C[C@H](Oc5ccc(C#CCOc6ccc7c(c6)C(=O)N(C6CCC(=O)NC6=O)C7=O)nc5)C4)nc3)cc21` (stereo partly shown) [Compound 117, 2-(2,6-dioxopiperidin-3-yl)-5-((3-(5-((1r,3r)-3-((5-(5-methyl-5H-pyrido[4,3-b]indol-7-yl)pyridin-2-yl)oxy)cyclobutoxy)pyridin-2-yl)prop-2-yn-1-yl)oxy)isoindoline-1,3-dione] as the compound, how does the “Degradation activity* (highest amount of degradation observed at any dosage; tau protein remaining)” value read?
Answer: The value was “C (>80% tau protein remaining after 72 hours of incubation with the test compound)”.

Question: For `Cn1c2ccncc2c2ccc(-c3ccc(O[C@H]4C[C@H](Oc5cnc(CCCCCCOc6ccc7c(c6)C(=O)N(C6CCC(=O)NC6=O)C7=O)nc5)C4)nc3)cc21` (stereo partly shown) [Compound 151, 2-(2,6-dioxopiperidin-3-yl)-5-((6-(5-((1r,3r)-3-((5-(5-methyl-5H-pyrido[4,3-b]indol-7-yl)pyridin-2-yl)oxy)cyclobutoxy)pyrimidin-2-yl)hexyl)oxy)isoindoline-1,3-dione], which “Degradation activity* (highest amount of degradation observed at any dosage; tau protein remaining)” value is on record?
Answer: Its value is “B (≤80% and >50% tau protein remaining after 72 hours of incubation with the test compound)”.

Question: With `Cn1c2ccncc2c2ccc(-c3ccc(O[C@H]4C[C@H](OC5CCN(CC(F)(F)CCCOc6ccc7c(c6)C(=O)N(C6CCC(=O)NC6=O)C7=O)CC5)C4)nc3)cc21` (stereo partly shown) [Compound 171, 5-((4,4-difluoro-5-(4-((1r,3r)-3-((5-(5-methyl-5H-pyrido[4,3-b]indol-7-yl)pyridin-2-yl)oxy)cyclobutoxy)piperidin-1-yl)pentyl)oxy)-2-(2,6-dioxopiperidin-3-yl)isoindoline-1,3-dione] as the compound, how does the “Degradation activity (tau protein remaining; highest amount of degradation observed at any dosage)” value read?
Answer: The value was “C (>80% tau protein remaining after 72 hours of incubation with the test compound)”.

Question: With `Cn1c2ccncc2c2ccc(-c3ccc(O[C@H]4C[C@H](Oc5ccc(CCCCCCOc6ccc7c(c6)C(=O)N(C6CCC(=O)NC6=O)C7=O)nc5)C4)nc3)cc21` (stereo partly shown) [Compound 98, 2-(2,6-dioxopiperidin-3-yl)-5-((6-(5-((1r,3r)-3-((5-(5-methyl-5H-pyrido[4,3-b]indol-7-yl)pyridin-2-yl)oxy)cyclobutoxy)pyridin-2-yl)hexyl)oxy)isoindoline-1,3-dione] as the compound, how does the “Degradation activity* (highest amount of degradation observed at any dosage; tau protein remaining)” value read?
Answer: The value was “B (≤80% and >50% tau protein remaining after 72 hours of incubation with the test compound)”.

Question: How did the “Degradation activity* (highest amount of degradation observed at any dosage; tau protein remaining)” value turn out when `Cn1c2ccncc2c2ccc(-c3ccc(OCCOCCOCCOCCOCCOCCOc4ccc5c(c4)C(=O)N(C4CCC(=O)NC4=O)C5=O)nc3)cc21` (stereo not shown) [Compound 131, 2-(2,6-dioxopiperidin-3-yl)-5-((17-((5-(5-methyl-5H-pyrido[4,3-b]indol-7-yl)pyridin-2-yl)oxy)-3,6,9,12,15-pentaoxaheptadecyl)oxy)isoindoline-1,3-dione] was run?
Answer: Its value is “A (≤50% tau protein remaining after 72 hours of incubation with the test compound)”.

Question: For `Cn1c2ccncc2c2ccc(-c3ccc(O[C@H]4C[C@H](OCCCCCCOC(C5CN(c6ccc7c(c6)C(=O)N(C6CCC(=O)NC6=O)C7=O)C5)C(F)(F)F)C4)nc3)cc21` (stereo partly shown) [Compound 154, 2-(2,6-dioxopiperidin-3-yl)-5-(3-(2,2,2-trifluoro-1-((6-((1r,3r)-3-((5-(5-methyl-5H-pyrido[4,3-b]indol-7-yl)pyridin-2-yl)oxy)cyclobutoxy)hexyl)oxy)ethyl)azetidin-1-yl)isoindoline-1,3-dione], which “Degradation activity* (highest amount of degradation observed at any dosage; tau protein remaining)” value is on record?
Answer: Its value is “C (>80% tau protein remaining after 72 hours of incubation with the test compound)”.

Question: Which “Degradation activity (tau protein remaining; highest amount of degradation observed at any dosage)” value does the source give for `Cn1c2ccncc2c2ccc(-c3ccc(O[C@H]4C[C@H](OCCCCCCOCC5CN(c6ccc7c(c6)C(=O)N(C6CCC(=O)NC6=O)C7=O)C5)C4)nc3)cc21` (stereo partly shown) [Compound 178, 2-(2,6-dioxopiperidin-3-yl)-5-(3-(((6-((1r,3r)-3-((5-(5-methyl-5H-pyrido[4,3-b]indol-7-yl)pyridin-2-yl)oxy)cyclobutoxy)hexyl)oxy)methyl)azetidin-1-yl)isoindoline-1,3-dione] here?
Answer: The value was “A (≤50% tau protein remaining after 72 hours of incubation with the test compound)”.

Question: `Cn1c2ccncc2c2ccc(-c3ccc(O[C@H]4C[C@H](Oc5ccnc(OCCCCCCOc6ccc7c(c6)C(=O)N(C6CCC(=O)NC6=O)C7=O)c5)C4)nc3)cc21` (stereo partly shown) [Compound 109, 2-(2,6-dioxopiperidin-3-yl)-5-((6-((4-((1r,3r)-3-((5-(5-methyl-5H-pyrido[4,3-b]indol-7-yl)pyridin-2-yl)oxy)cyclobutoxy)pyridin-2-yl)oxy)hexyl)oxy)isoindoline-1,3-dione] was tested. Which “Degradation activity* (highest amount of degradation observed at any dosage; tau protein remaining)” value did it give?
Answer: The value was “C (>80% tau protein remaining after 72 hours of incubation with the test compound)”.

Question: With `Cn1c2ccncc2c2ccc(-c3ccc(O[C@H]4C[C@@H](Oc5ccc(CCCCCCOc6ccc7c(c6)C(=O)N(C6CCC(=O)NC6=O)C7=O)cn5)C4)nc3)cc21` (stereo partly shown) [Compound 145, 2-(2,6-dioxopiperidin-3-yl)-5-(6-(6-((1s,3s)-3-(5-(5-methyl-5H-pyrido[4,3-b]indol-7-yl)pyridin-2-yloxy)cyclobutoxy)pyridin-3-yl)hexyloxy)isoindoline-1,3-dione] as the compound, how does the “Degradation activity* (highest amount of degradation observed at any dosage; tau protein remaining)” value read?
Answer: The value was “C (>80% tau protein remaining after 72 hours of incubation with the test compound)”.

Question: With `Cn1c2ccncc2c2ccc(-c3ccc(O[C@H]4C[C@H](Oc5ccc(C#CCCCOc6ccc7c(c6)C(=O)N(C6CCC(=O)NC6=O)C7=O)nc5)C4)nc3)cc21` (stereo partly shown) [Compound 94, 2-(2,6-dioxopiperidin-3-yl)-5-((5-(5-((1r,3r)-3-((5-(5-methyl-5H-pyrido[4,3-b]indol-7-yl)pyridin-2-yl)oxy)cyclobutoxy)pyridin-2-yl)pent-4-yn-1-yl)oxy)isoindoline-1,3-dione] as the compound, how does the “Degradation activity* (highest amount of degradation observed at any dosage; tau protein remaining)” value read?
Answer: Its value is “C (>80% tau protein remaining after 72 hours of incubation with the test compound)”.

Question: For `O=C1CCC(N2C(=O)c3ccc(OCCOCC#Cc4ccc(O[C@H]5C[C@H](Oc6ccc(-c7ccc8c(c7)[nH]c7ccncc78)cn6)C5)cc4)cc3C2=O)C(=O)N1` (stereo partly shown) [Compound 188, 5-(2-((3-(4-((1r,3r)-3-((5-(5H-pyrido[4,3-b]indol-7-yl)pyridin-2-yl)oxy)cyclobutoxy)phenyl)prop-2-yn-1-yl)oxy)ethoxy)-2-(2,6-dioxopiperidin-3-yl)isoindoline-1,3-dione], which “Degradation activity (tau protein remaining; highest amount of degradation observed at any dosage)” value is on record?
Answer: Its value is “B (≤80% and >50% tau protein remaining after 72 hours of incubation with the test compound)”.

Same assay, conditions: SK-N-SH cells; 72 hours of incubation; tested at 1000 nM, 300 nM and 100 nM

Question: Which “Activity* (highest amount of degradation observed at any dosage, as tau protein remaining)” value does the source give for `Cc1ncsc1-c1ccc(CNC(=O)[C@@H]2C[C@@H](O)CN2C(=O)[C@@H](NC(=O)COCCCCCOc2ccc3nc(-c4ccc(N(C)C)cc4)ccc3c2)C(C)(C)C)cc1` [Compound 37, (2S,4R)-1-((S)-2-(2-(5-(2-(4-(dimethylamino)phenyl)quinolin-6-yloxy)pentyloxy)acetamido)-3,3-dimethylbutanoyl)-4-hydroxy-N-(4-(4-methylthiazol-5-yl)benzyl)pyrrolidine-2-carboxamide] here?
Answer: Its value is “C (>80% tau protein remaining after 72 hours of incubation with the test compound)”.

Question: Which “Activity* (highest amount of degradation observed at any dosage, as tau protein remaining)” value does the source give for `Cc1ncsc1-c1ccc(CNC(=O)[C@@H]2C[C@@H](O)CN2C(=O)[C@@H](NC(=O)COCCOCCOCC(O)COc2ccc3nc(-c4ccc(N(C)C)cc4)ccc3c2)C(C)(C)C)cc1` (stereo partly drawn) [Compound 43, (2S,4R)-1-((2S)-2-(tert-butyl)-15-((2-(4-(dimethylamino)phenyl)quinolin-6-yl)oxy)-14-hydroxy-4-oxo-6,9,12-trioxa-3-azapentadecanoyl)-4-hydroxy-N-(4-(4-methylthiazol-5-yl)benzyl)pyrrolidine-2-carboxamide] here?
Answer: The value was “C (>80% tau protein remaining after 72 hours of incubation with the test compound)”.

Question: For `Cc1ncsc1-c1ccc([C@H](C)NC(=O)[C@@H]2C[C@@H](O)CN2C(=O)[C@@H](NC(=O)COCCOCCOCCOCC(=O)N2CCN(c3ccn4c(n3)nc3ccccc34)CC2)C(C)(C)C)cc1` [Compound 18, (2S,4R)-1-((S)-17-(4-(benzo[4,5]imidazo[1,2-a]pyrimidin-2-yl)piperazin-1-yl)-2-(tert-butyl)-4,17-dioxo-6,9,12,15-tetraoxa-3-azaheptadecanoyl)-4-hydroxy-N—((S)-1-(4-(4-methylthiazol-5-yl)phenyl)ethyl)pyrrolidine-2-carboxamide], which “Activity* (highest amount of degradation observed at any dosage, as tau protein remaining)” value is on record?
Answer: The value was “C (>80% tau protein remaining after 72 hours of incubation with the test compound)”.
